Results taken from PubChem BioAssay AID2060627 (Molecular Pharmacology Branch, DTP, NCI, 2025).

The molecules below were run on 156681-154-R-J1-PDC complex spheroid viability (assay: Anticancer human tumor 156681-154-R-J1-PDC patient-derived melanoma cell line growth inhibition [CLK]). Conditions: curve of first compound; second compound 0.0316 µM.
Method in brief: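 Multi-cell-type spheroids combined patient-derived tumor cells with HUVEC endothelial cells and human mesenchymal stem cells. Paired agents were dosed in half-log steps down from about clinical Cmax, or from 10 microM where Cmax was unknown.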
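Note: spheroids exposed to the agents for seven days.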

| IC50 [nM] | SMILES |
| --- | --- |
| < 3.16 | CCc1c2c(nc3ccc(O)cc13)-c1cc3c(c(=O)n1C2)COC(=O)[C@]3(O)CC + CNC(=O)c1ccc(Nc2nc(OC3CCCC3)c3c(-c4ccc5nc(C)oc5c4)c[nH]c3n2)c(OC)c1 |
| > 10000 | CC(CO)NC(=O)c1cc(-c2ccc(Cl)cc2)nn(-c2cnn(C)c2)c1=O (stereo unspecified) + CNC(=O)c1ccc(Nc2nc(OC3CCCC3)c3c(-c4ccc5nc(C)oc5c4)c[nH]c3n2)c(OC)c1 |
| 1910 | COc1ccc([C@@H](O)c2cc(-c3ncnc4cc(N5CCOCC5)ccc34)c(F)cc2Cl)nn1 + CNC(=O)c1ccc(Nc2nc(OC3CCCC3)c3c(-c4ccc5nc(C)oc5c4)c[nH]c3n2)c(OC)c1 |

| SMILES | IC50 [nM] |
| --- | --- |
| Nc1ccn(C2OC(CO)C(O)C2(F)F)c(=O)n1 (stereo unspecified) + CN1CCN(c2cc(C(=O)Nc3cc4cc(-c5cnn(C)c5)ccc4cn3)ccn2)CC1 | < 31.6 |
| COC1C=CCC(C)C(C)S(=O)(=O)NC(=O)c2ccc3c(c2)N(CC2CCC21)CC1(CCCc2cc(Cl)ccc21)CO3 (stereo unspecified) + CN1CCN(c2cc(C(=O)Nc3cc4cc(-c5cnn(C)c5)ccc4cn3)ccn2)CC1 | 1600 |

Same assay, conditions: curve of first compound; second compound 0.1 µM

| IC50 [nM] | SMILES |
| --- | --- |
| < 3.16 | CCc1c2c(nc3ccc(O)cc13)-c1cc3c(c(=O)n1C2)COC(=O)[C@]3(O)CC + CNC(=O)c1ccc(Nc2nc(OC3CCCC3)c3c(-c4ccc5nc(C)oc5c4)c[nH]c3n2)c(OC)c1 |
| > 10000 | CC(CO)NC(=O)c1cc(-c2ccc(Cl)cc2)nn(-c2cnn(C)c2)c1=O (stereo unspecified) + CNC(=O)c1ccc(Nc2nc(OC3CCCC3)c3c(-c4ccc5nc(C)oc5c4)c[nH]c3n2)c(OC)c1 |
| 1480 | COc1ccc([C@@H](O)c2cc(-c3ncnc4cc(N5CCOCC5)ccc34)c(F)cc2Cl)nn1 + CNC(=O)c1ccc(Nc2nc(OC3CCCC3)c3c(-c4ccc5nc(C)oc5c4)c[nH]c3n2)c(OC)c1 |

| SMILES | IC50 [nM] |
| --- | --- |
| Nc1ccn(C2OC(CO)C(O)C2(F)F)c(=O)n1 (stereo unspecified) + CN1CCN(c2cc(C(=O)Nc3cc4cc(-c5cnn(C)c5)ccc4cn3)ccn2)CC1 | < 31.6 |
| COC1C=CCC(C)C(C)S(=O)(=O)NC(=O)c2ccc3c(c2)N(CC2CCC21)CC1(CCCc2cc(Cl)ccc21)CO3 (stereo unspecified) + CN1CCN(c2cc(C(=O)Nc3cc4cc(-c5cnn(C)c5)ccc4cn3)ccn2)CC1 | 1170 |

Same assay, conditions: curve of first compound; second compound 0.316 µM

| IC50 [nM] | SMILES |
| --- | --- |
| < 3.16 | CCc1c2c(nc3ccc(O)cc13)-c1cc3c(c(=O)n1C2)COC(=O)[C@]3(O)CC + CNC(=O)c1ccc(Nc2nc(OC3CCCC3)c3c(-c4ccc5nc(C)oc5c4)c[nH]c3n2)c(OC)c1 |
| 4910 | CC(CO)NC(=O)c1cc(-c2ccc(Cl)cc2)nn(-c2cnn(C)c2)c1=O (stereo unspecified) + CNC(=O)c1ccc(Nc2nc(OC3CCCC3)c3c(-c4ccc5nc(C)oc5c4)c[nH]c3n2)c(OC)c1 |
| 1100 | COc1ccc([C@@H](O)c2cc(-c3ncnc4cc(N5CCOCC5)ccc34)c(F)cc2Cl)nn1 + CNC(=O)c1ccc(Nc2nc(OC3CCCC3)c3c(-c4ccc5nc(C)oc5c4)c[nH]c3n2)c(OC)c1 |

| SMILES | IC50 [nM] |
| --- | --- |
| Nc1ccn(C2OC(CO)C(O)C2(F)F)c(=O)n1 (stereo unspecified) + CN1CCN(c2cc(C(=O)Nc3cc4cc(-c5cnn(C)c5)ccc4cn3)ccn2)CC1 | < 31.6 |
| COC1C=CCC(C)C(C)S(=O)(=O)NC(=O)c2ccc3c(c2)N(CC2CCC21)CC1(CCCc2cc(Cl)ccc21)CO3 (stereo unspecified) + CN1CCN(c2cc(C(=O)Nc3cc4cc(-c5cnn(C)c5)ccc4cn3)ccn2)CC1 | < 31.6 |

Same assay, conditions: curve of first compound; second compound 1 µM

| IC50 [nM] | SMILES |
| --- | --- |
| < 3.16 | CCc1c2c(nc3ccc(O)cc13)-c1cc3c(c(=O)n1C2)COC(=O)[C@]3(O)CC + CNC(=O)c1ccc(Nc2nc(OC3CCCC3)c3c(-c4ccc5nc(C)oc5c4)c[nH]c3n2)c(OC)c1 |
| < 31.6 | CC(CO)NC(=O)c1cc(-c2ccc(Cl)cc2)nn(-c2cnn(C)c2)c1=O (stereo unspecified) + CNC(=O)c1ccc(Nc2nc(OC3CCCC3)c3c(-c4ccc5nc(C)oc5c4)c[nH]c3n2)c(OC)c1 |
| 116 | COc1ccc([C@@H](O)c2cc(-c3ncnc4cc(N5CCOCC5)ccc34)c(F)cc2Cl)nn1 + CNC(=O)c1ccc(Nc2nc(OC3CCCC3)c3c(-c4ccc5nc(C)oc5c4)c[nH]c3n2)c(OC)c1 |

| SMILES | IC50 [nM] |
| --- | --- |
| Nc1ccn(C2OC(CO)C(O)C2(F)F)c(=O)n1 (stereo unspecified) + CN1CCN(c2cc(C(=O)Nc3cc4cc(-c5cnn(C)c5)ccc4cn3)ccn2)CC1 | < 31.6 |
| COC1C=CCC(C)C(C)S(=O)(=O)NC(=O)c2ccc3c(c2)N(CC2CCC21)CC1(CCCc2cc(Cl)ccc21)CO3 (stereo unspecified) + CN1CCN(c2cc(C(=O)Nc3cc4cc(-c5cnn(C)c5)ccc4cn3)ccn2)CC1 | < 31.6 |

Same assay, conditions: curve of first compound; second compound 3.16 µM

| IC50 [nM] | SMILES |
| --- | --- |
| < 3.16 | CCc1c2c(nc3ccc(O)cc13)-c1cc3c(c(=O)n1C2)COC(=O)[C@]3(O)CC + CNC(=O)c1ccc(Nc2nc(OC3CCCC3)c3c(-c4ccc5nc(C)oc5c4)c[nH]c3n2)c(OC)c1 |
| < 31.6 | CC(CO)NC(=O)c1cc(-c2ccc(Cl)cc2)nn(-c2cnn(C)c2)c1=O (stereo unspecified) + CNC(=O)c1ccc(Nc2nc(OC3CCCC3)c3c(-c4ccc5nc(C)oc5c4)c[nH]c3n2)c(OC)c1 |
| < 31.6 | COc1ccc([C@@H](O)c2cc(-c3ncnc4cc(N5CCOCC5)ccc34)c(F)cc2Cl)nn1 + CNC(=O)c1ccc(Nc2nc(OC3CCCC3)c3c(-c4ccc5nc(C)oc5c4)c[nH]c3n2)c(OC)c1 |

| SMILES | IC50 [nM] |
| --- | --- |
| Nc1ccn(C2OC(CO)C(O)C2(F)F)c(=O)n1 (stereo unspecified) + CN1CCN(c2cc(C(=O)Nc3cc4cc(-c5cnn(C)c5)ccc4cn3)ccn2)CC1 | < 31.6 |
| COC1C=CCC(C)C(C)S(=O)(=O)NC(=O)c2ccc3c(c2)N(CC2CCC21)CC1(CCCc2cc(Cl)ccc21)CO3 (stereo unspecified) + CN1CCN(c2cc(C(=O)Nc3cc4cc(-c5cnn(C)c5)ccc4cn3)ccn2)CC1 | < 31.6 |

Same assay, conditions: curve of first compound; second compound 10 µM

| IC50 [nM] | SMILES |
| --- | --- |
| < 3.16 | CCc1c2c(nc3ccc(O)cc13)-c1cc3c(c(=O)n1C2)COC(=O)[C@]3(O)CC + CNC(=O)c1ccc(Nc2nc(OC3CCCC3)c3c(-c4ccc5nc(C)oc5c4)c[nH]c3n2)c(OC)c1 |
